The target in this series is CD137 (Homo sapiens, UniProt Q07011). Kind of series: CD137 reporter assay, co-culture with Nectin-4 tumour cells.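 Further: jurkat reporter cells co-cultured with tumour cells and test article for 6 h, luminescence signal relative to Jurkat plus tumour cells lacking test article.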 In kind it is cell-based. Set-up: host or cells: Jurkat reporter cells. On the technique in general: A reporter such as luciferase makes a cellular process visible.
[1] abbreviates: tumour target Nectin4, co-culture with H1376, 6 h.

Like-named read-outs stand apart in the source and are kept apart here.

Chain of CD137 (Q07011 24-255): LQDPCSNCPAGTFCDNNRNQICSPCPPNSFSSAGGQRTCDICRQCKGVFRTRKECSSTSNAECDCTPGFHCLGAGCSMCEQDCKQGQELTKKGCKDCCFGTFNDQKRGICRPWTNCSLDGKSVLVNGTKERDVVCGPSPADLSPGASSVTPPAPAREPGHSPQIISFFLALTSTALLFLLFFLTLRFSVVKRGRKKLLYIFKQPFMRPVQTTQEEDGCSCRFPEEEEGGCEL
Procedure: Culture medium referred to as R1 media is prepared by adding 1% FBS to RPMI-1640 (component of Promega kit CS196005). Serial dilutions of test articles in R1 are prepared in a sterile 96 well-plate. Use 25 μl per well of test articles or R1 (as a background control) to designated wells in white cell culture plate. Tumour cells* are harvested and resuspended at a concentration of 400,000 cells/mL in R1 media. Twenty five (25) μL/well tumour cells are used in white cell culture plate. Jurkat cells (Promega kit CS196005, 0.5 mL) are thawed in the water bath and then added to 5 ml pre-warmed R1 medium. Twenty five (25) μL/well Jurkat cells are used in white cell culture plate. Incubate the cells and test articles for 6h at 37° C., 5% CO2. At the end of 6 h, add 75 μl/well Bio-Glo™ (Promega) and incubate for 10 min before reading luminescence in a plate reader (Clariostar, BMG). The fold change relative to cells (Jurkat cells+Cell line used in co-culture) is calculated and plotted in GraphPad Prism as log(agonist) vs response to determine EC50 (nM) and Fold Induction over background (Max)

In the case of `CCCC[C@@H]1NC(=O)[C@H](Cc2ccc(O)cc2)NC(=O)[C@@H]2CCCN2C(=O)[C@H](CC(=O)O)NC(=O)[C@H](C)NC(=O)[C@H](Cc2ccccc2)NC(=O)[C@@H]2CSCCC(=O)N3CN(CN(C3)C(=O)CCSC[C@@H](C(=O)N[C@@H](CNC(=O)Cn3cc(CCC(=O)NCCC(=O)N(C)CC(=O)N(C)CC(=O)N(C)CC(=O)N(C)CC(=O)N(C)CC(=O)N(C)CC(=O)N(C)CC(=O)N(C)CC(=O)N(C)CC(=O)N(C)CC(=O)N[C@H]4CSCCC(=O)N5CN6CN(C5)C(=O)CCSC[C@H](NC(=O)[C@@H](CC(=O)O)NC(=O)[C@H](Cc5cccc7ccccc57)NC(=O)[C@@H]5CCCN5C4=O)C(=O)N[C@@H](CCSC)C(=O)N[C@@H](CCCCNC(=N)N)C(=O)N[C@@H](CC(=O)O)C(=O)N[C@@H](Cc4c[nH]c5ccccc45)C(=O)N[C@@H](CO)C(=O)N[C@@H]([C@@H](C)O)C(=O)N4CCC[C@H]4C(=O)N4C[C@H](O)C[C@H]4C(=O)N[C@@H](Cc4c[nH]c5ccccc45)C(=O)N[C@H](C(N)=O)CSCCC6=O)nn3)C(N)=O)NC1=O)C(=O)CCSC[C@H](NC(C)=O)C(=O)N[C@@H](CC(C)(C)C)C(=O)N1CCC[C@H]1C(=O)N[C@@H](CCC(=O)O)C(=O)N[C@H](C)C(=O)N1CCC[C@H]1C(=O)N[C@@H](Cc1ccc(O)cc1)C(=O)N2` [BCY10578], the “Fold Induction over Background” value under setting [1] was 58 fold.

As to `CCCC[C@@H]1NC(=O)[C@H](Cc2ccc(O)cc2)NC(=O)[C@@H]2CCCN2C(=O)[C@H](CC(=O)O)NC(=O)[C@H](C)NC(=O)[C@H](Cc2ccccc2)NC(=O)[C@@H]2CSCCC(=O)N3CN(CN(C3)C(=O)CCSC[C@@H](C(=O)N[C@@H](CNC(=O)CCc3cn(CCOCCOCCOCCOCCOCCOCCOCCOCCOCCOCCOCCOCCC(=O)NCCC(=O)N(C)CC(=O)N(C)CC(=O)N(C)CC(=O)N(C)CC(=O)N(C)CC(=O)N(C)CC(=O)N(C)CC(=O)N(C)CC(=O)N(C)CC(=O)N(C)CC(=O)NCCCC[C@H]4NC(=O)[C@H](Cc5cccc6ccccc56)NC(=O)[C@@H]5CCCN5C(=O)[C@@H](NC(C)=O)CSCCC(=O)N5CN6CN(C5)C(=O)CCSC[C@H](NC4=O)C(=O)N[C@@H](CCSC)C(=O)N[C@@H](CCCCNC(=N)N)C(=O)N[C@@H](CC(=O)O)C(=O)N[C@@H](Cc4c[nH]c5ccccc45)C(=O)N[C@@H](CO)C(=O)N[C@@H]([C@@H](C)O)C(=O)N4CCC[C@H]4C(=O)N4C[C@H](O)C[C@H]4C(=O)N[C@@H](Cc4c[nH]c5ccccc45)C(=O)N[C@H](C(N)=O)CSCCC6=O)nn3)C(N)=O)NC1=O)C(=O)CCSC[C@H](NC(C)=O)C(=O)N[C@@H](CC(C)(C)C)C(=O)N1CCC[C@H]1C(=O)N[C@@H](CCC(=O)O)C(=O)N[C@H](C)C(=O)N1CCC[C@H]1C(=O)N[C@@H](Cc1ccc(O)cc1)C(=O)N2` [BCY10917], the “Fold Induction over Background” value under setting [1] was 54 fold.

With `CCCC[C@@H]1NC(=O)[C@H](Cc2ccc(O)cc2)NC(=O)[C@@H]2CCCN2C(=O)[C@H](CC(=O)O)NC(=O)[C@H](C)NC(=O)[C@H](Cc2ccccc2)NC(=O)[C@@H]2CSCCC(=O)N3CN(CN(C3)C(=O)CCSC[C@@H](C(=O)N[C@@H](CNC(=O)CCc3cn(CCOCCOCCOCCOCCOCCC(=O)NCCC(=O)N(C)CC(=O)N(C)CC(=O)N(C)CC(=O)N(C)CC(=O)N(C)CC(=O)N(C)CC(=O)N(C)CC(=O)N(C)CC(=O)N(C)CC(=O)N(C)CC(=O)NCCCC[C@H]4NC(=O)[C@H](Cc5cccc6ccccc56)NC(=O)[C@@H]5CCCN5C(=O)[C@@H](NC(C)=O)CSCCC(=O)N5CN6CN(C5)C(=O)CCSC[C@H](NC4=O)C(=O)N[C@@H](CCSC)C(=O)N[C@@H](CCCCNC(=N)N)C(=O)N[C@@H](CC(=O)O)C(=O)N[C@@H](Cc4c[nH]c5ccccc45)C(=O)N[C@@H](CO)C(=O)N[C@@H]([C@@H](C)O)C(=O)N4CCC[C@H]4C(=O)N4C[C@H](O)C[C@H]4C(=O)N[C@@H](Cc4c[nH]c5ccccc45)C(=O)N[C@H](C(N)=O)CSCCC6=O)nn3)C(N)=O)NC1=O)C(=O)CCSC[C@H](NC(C)=O)C(=O)N[C@@H](CC(C)(C)C)C(=O)N1CCC[C@H]1C(=O)N[C@@H](CCC(=O)O)C(=O)N[C@H](C)C(=O)N1CCC[C@H]1C(=O)N[C@@H](Cc1ccc(O)cc1)C(=O)N2` [BCY11020], the “Fold Induction over Background” value under setting [1] was found to be 47 fold.

In general, EC50 refers to the midpoint of the concentration-response curve. In the case of `CCCC[C@@H]1NC(=O)[C@H](Cc2ccc(O)cc2)NC(=O)[C@@H]2CCCN2C(=O)[C@H](CC(=O)O)NC(=O)[C@H](C)NC(=O)[C@H](Cc2ccccc2)NC(=O)[C@@H]2CSCCC(=O)N3CN(CN(C3)C(=O)CCSC[C@@H](C(=O)N[C@@H](C)C(N)=O)NC1=O)C(=O)CCSC[C@H](NC(C)=O)C(=O)N[C@@H](CC(C)(C)C)C(=O)N1CCC[C@H]1C(=O)N[C@@H](CCCCNC(=O)CCc1cn(CC(=O)N[C@H]3CSCCC(=O)N4CN5CN(C4)C(=O)CCSC[C@H](NC(=O)[C@@H](CC(=O)O)NC(=O)[C@H](Cc4cccc6ccccc46)NC(=O)[C@@H]4CCCN4C3=O)C(=O)N[C@@H](CCSC)C(=O)N[C@@H](CCCCNC(=N)N)C(=O)N[C@@H](CC(=O)O)C(=O)N[C@@H](Cc3c[nH]c4ccccc34)C(=O)N[C@@H](CO)C(=O)N[C@@H]([C@@H](C)O)C(=O)N3CCC[C@H]3C(=O)N3C[C@H](O)C[C@H]3C(=O)N[C@@H](Cc3c[nH]c4ccccc34)C(=O)N[C@H](C(N)=O)CSCCC5=O)nn1)C(=O)N[C@H](C)C(=O)N1CCC[C@H]1C(=O)N[C@@H](Cc1ccc(O)cc1)C(=O)N2` [BCY11373], the “Fold Induction over Background” value is recorded as 74 fold. The EC50 (tumour target Nectin4, co-culture with H1376, 6 h, read-out: EC50) came out at 0.16 nM.

`CCCC[C@@H]1NC(=O)[C@H](Cc2ccc(O)cc2)NC(=O)[C@@H]2CCCN2C(=O)[C@H](CC(=O)O)NC(=O)[C@H](C)NC(=O)[C@H](Cc2ccccc2)NC(=O)[C@@H]2CSCCC(=O)N3CN(CN(C3)C(=O)CCSC[C@@H](C(=O)N[C@@H](C)C(N)=O)NC1=O)C(=O)CCSC[C@H](NC(C)=O)C(=O)N[C@@H](CC(C)(C)C)C(=O)N1CCC[C@H]1C(=O)N[C@@H](CCC(=O)O)C(=O)N[C@H](CCCCNC(=O)CCc1cn(CC(=O)N[C@H]3CSCCC(=O)N4CN5CN(C4)C(=O)CCSC[C@H](NC(=O)[C@@H](CC(=O)O)NC(=O)[C@H](Cc4cccc6ccccc46)NC(=O)[C@@H]4CCCN4C3=O)C(=O)N[C@@H](CCSC)C(=O)N[C@@H](CCCCNC(=N)N)C(=O)N[C@@H](CC(=O)O)C(=O)N[C@@H](Cc3c[nH]c4ccccc34)C(=O)N[C@@H](CO)C(=O)N[C@@H]([C@@H](C)O)C(=O)N3CCC[C@H]3C(=O)N3C[C@H](O)C[C@H]3C(=O)N[C@@H](Cc3c[nH]c4ccccc34)C(=O)N[C@H](C(N)=O)CSCCC5=O)nn1)C(=O)N1CCC[C@H]1C(=O)N[C@@H](Cc1ccc(O)cc1)C(=O)N2` [BCY11374]: a half-maximal effect (EC50) was put at 0.091 nM. Further, the “Fold Induction over Background” value under setting [1] stood at 72 fold.

Values taken from patent US11453703B2, “Heterotandem bicyclic peptide complexes” (BicycleTX Limited, priority 2018, dated 2022).
